The conditions of data set [1]: by mouth; rapid metabolism in intestinal epithelium and liver; cited from earlier work.
A short description of data set [2]: bioavailability of progesterone in rats after intravenous, nasal and intraduodenal/oral administration. The format is in vivo, Sprague-Dawley male rats. The protocol:
(§1) Sprague-Dawley male rats, each weighing about 270 grams, were used in the progesterone study. For nasal administration, the rats were anesthetized using sodium pentobarbital (50 mg/kg) and the drug was administered to the nasal cavity by means of a micropipet at dosage levels of 50 μg, 100 μg and 150 μg/rat of [4-^14 C]-progesterone (~8.5 μCi/rat) in 0.1 ml of isotonic saline containing 1-2% Tween 80 as a solubilizing agent, according to the procedure described by Hirai et al, the 98th Annual Meeting of Pharmaceutical Society of Japan, Okayama, April 1978, except that the end of the tube leading from the esophagus to the nasal cavity was closed and the drug was administered to the nostrils which were then closed with an adhesive agent. For oral (intraduodenal) administration, the rats were anesthetized and the abdomen of each rat was opened through a midline incision and a 50 μg/rat dose of the drug ([4-^14 C]-progesterone in 0.1 ml isotonic saline with 1-2% Tween 80) was injected directly through the duodenum. For intravenous administration, the rats were anesthetized and the drug was injected through the femoral vein at dosage levels of 50 μg, 100 μg and 150 μg/rat of [4-^14 C]-progesterone in 0.1 ml of isotonic saline containing 1-2% Tween 80. Blood was sampled periodically from the […] after IV and nasal administration, and from the tail vein after ID administration. Blood levels of progesterone were determined by thin layer chromotography.

Data set [3] is described as follows: bioavailability of 17 β-estradiol in rats via intravenous, nasal and intraduodenal/oral routes (TUE, E2, E1 in blood). The class given is in vivo, Sprague-Dawley male rats. The protocol:
as §1
Sprague-Dawley male rats, each weighing approximately 270 grams, were given dosages of 5 μg, 10 μg and 20 μg/rat of [6,7-^3 H] […] Blood samples were taken periodically as described in the progesterone study and assayed for estradiol (E2), estrone (E1) and total unconjugated estrogens (TUE).

These results are taken from US4383993A, “Nasal dosage forms containing natural female sex hormones” (priority 1981, dated 1983).

Each structure is given as a SMILES string. “Also recorded” adds a separate entry of the source.

Broadly, the Tmax is the time from dosing to the highest level.

As to `CC(=O)[C@H]1CC[C@H]2[C@@H]3CCC4=CC(=O)CC[C@]4(C)[C@H]3CC[C@]12C` [progesterone, pregn-4-ene-3,20-dione], in data set [1], the oral effectiveness entry is reported as “not effective by mouth”. Also, in data set [2] (50 μg dosage level), the “nasal bioavailability vs oral bioavailability” value came out at 85.75 times. For the same compound, in data set [2] (IV and nasal routes, 50, 100, 150 μg, FIG. 2), the “area under the curve as a function of dose” value is “directly proportional to the dose administered”. The “area under the curve, intravenous vs nasal (two tailed t-test)” value in data set [2] (at each dose) is given as “not significantly different, even at the 0.001 level”. Moreover, the “absorption from the nasal mucosa” value in data set [2] (nasal) was “very rapidly absorbed from the nasal mucosa; also recorded: rapidly absorbed from the nasal mucosa into the systemic circulation without first pass metabolism; also recorded: rapidly absorbed from the nasal mucosa into systemic blood without extensive intestinal or first pass metabolism”. For the same compound, the “nasal bioavailability vs intravenous bioavailability” value in data set [2] (nasal vs intravenous) was “equivalent”. Also, the “nasal bioavailability vs oral bioavailability (in words)” value in data set [2] (nasal vs oral) was “vastly superior”. For the same compound, the time of peak concentration (Tmax) in data set [2] (rat, in vivo) was less than 7 min. Also, the bioavailability in data set [2] (rat, in vivo, iv, AUC ratio Nasal/IV) is 103%; in data set [2] (rat, in vivo, oral bioavailability relative to equivalent IV dose), 1.2%.
Regarding `C[C@]12CC[C@@H]3c4ccc(O)cc4CC[C@H]3[C@@H]1CC[C@@H]2O` [17 β-estradiol, estra-1,3,5(10)-triene-3,17 β-diol], the “absorption by the nasal mucosa” value in data set [3] (nasal) was “rapidly absorbed by the nasal mucosa; also recorded: rapidly absorbed from the nasal mucosa into systemic blood without extensive intestinal or first pass metabolism”. Also, in data set [3] (rat, in vivo), the “nasal vs oral bioavailability of E2” value was 13.23-21.74 times. For the same compound, the “nasal vs oral bioavailability of TUE” value in data set [3] (rat, in vivo) is reported as 2.26-2.83 times. Moreover, the bioavailability in data set [3] (rat, in vivo, E2 bioavailability relative to corresponding IV doses) was 50.5 to 83.9%; in data set [3] (rat, in vivo, po, E2 AUC ratio vs. IV), 3.8%; in data set [3] (rat, in vivo, po, E2 bioavailability relative to corresponding IV doses) it was 3.1 to 5%.
